Laboratory results published in patent EP0114563A1, “Cytostatically effective combination” (SCHERING AKTIENGESELLSCHAFT, priority 1982, dated 1984).
Read-outs that look alike come from different tables or passages of the source.

Test system: human leukemic cells
Assay: Inhibition of cell proliferation (growth kinetics by cell counting) in culture
Conditions: L-Dopa 10 µg/ml, read-out: inhibition in %, based on a control free of active agent
Excerpt: Every second day, the culture medium of each test batch was replaced by fresh medium and active agent.

Compound: N[C@@H](Cc1ccc(O)c(O)c1)C(=O)O [L-Dopa, 3-hydroxy-L-tyrosine]
- inhibition at 10 µg/mL (72 Hrs.): 18%
- inhibition at 10 µg/mL (144 Hrs.): 58%
